Experimental data taken from patent publication US5714471A, “Peptide and peptide analog protease inhibitors” (SIBIA Neurosciences, Inc., priority 1995, dated 1998).
Non-standard residues stand in square brackets, D forms with d. Residues, ends and D or L forms follow the SMILES beside them. ξ: configuration not given here. *: point of attachment. Chg = N[CH](C(=O)O)C1CCCCC1; Nle = CCCC[CH](N)C(=O)O; Cbz = O=C(OCc1ccccc1)*; ξNle = CCCCC(N)C(=O)O; CHN2 = [N-]=[N+]=C*

Tested on: Aβ formation in HGB 717/Swed cells
Assay: Immunoblot assay for Aβ peptide (inhibition of Aβ formation)
Assay type: cell-based, human
Conditions: overnight incubation, conditioned medium, relative to DMSO control
Excerpt: Human glioblastoma cells (ATCC Accession No. HTB16) were stably transfected with a DNA expression vector encoding a 695 amino acid isoform variant of the amyloid precursor protein (APP) containing the familial Swedish double mutations at codons 670 and 671 (K to N and M to L, respectively; see Mullan et al. (1992) Nature Genet. 1:345-347) and an additional mutation at codon 717 (V to F; see Murrell et al. (1991) Science 254:97-99) to produce cells designated HGB 717/Swed. High levels of Aβ are detectable in the conditioned medium isolated from HGb 717/Swed cultured cells. The medium also contains larger secreted fragments, α-sAPP695, which are alternatively processed APP fragments whose generation precludes Aβ formation.
HGB 717/Swed cells were grown at 37° C. under a 5% carbon dioxide atmosphere in Dulbecco's modified eagle medium (DMEM; Gibco) supplemented with 10% heat-inactivated fetal calf serum, 0.45% glucose, 2 mM L-glutamine, 100 units/ml penicillin, and 100 μg/ml streptomycin sulfate (Gemini Bioproducts). Approximately 1×10^6 cells were incubated overnight in 5 ml of DMEM containing varying μM final concentrations of desired test compounds or a DMSO control. Conditioned medium was collected, and unwanted cells and debris were removed by sedimentation at 3,000 rpm at 4° C.
Aβ peptides were isolated from the medium by immunoaffinity purification using an Aβ-specific antibody. To reduce the interaction of non-specific binding of unrelated proteins, such as serum proteins, to the antibody, the medium was pre-treated with rabbit antisera and Protein A Sepharose (Pharmacia) for 4 hours at 4° C. The sepharose-bound material was removed by centrifugation at 3,000 rpm at 4° C. for 10 min, and Aβ peptides were immunoaffinity purified from the clarified medium by incubation overnight with an affinity purified polyclonal rabbit antibody (referred to as 2939) prepared against a synthetic Aβ peptide corresponding to amino acids 1 to 28. Protein A-conjugated sepharose was added to immobilize the Aβ-antibody complexes, and the resin was pelleted by centrifugation at 3,000 rpm at 4° C. for 10 min. The Aβ -antibody complexes were eluted from the matrix by denaturing the complex by boiling in the presence of SDS.
Equal portions of each sample were loaded on 16% Tricine gels (Novex), and subjected to electrophoresis. Resolved proteins were transferred from the gel to Hybond nitrocellulose (Amersham, Arlington Heights, Ill.) by electroblotting, and incubated with the commercially available monoclonal antibody 6E10 (obtained from Drs. Kim and Wisniewski, Institute for Basic Research, New York, see, published International PCT application WO 90/12871), which specifically recognizes Aβ residues 1 to 17. Specifically bound antibody was detected using a biotinylated goat anti-mouse IgG secondary antibody (Sigma), followed by the addition of streptavidin conjugated to horseradish preoxidase (Amersham, Arlington Heights, Ill.), and documented by luminescent detection (Amersham). Levels of Aβ peptides were determined by laser densitometry of visualized films. A positive result in the assay is a decrease in the formation of the 4-kDa Aβ peptides relative to the DMSO control.

| Compound | % INHIBITION OF Aβ (concentration of 40 μM) | % INHIBITION OF Aβ (concentration of 75 μM) | further results |
| --- | --- | --- | --- |
| C=C(C)CC(C=O)NC(=O)[C@H](CC(C)C)NC(=O)[C@H](CC(C)C)OCc1ccccc1 (mixture of isomers) [2S--benzoxyvaleric--L--Lene--(H), (2SR)-N-[(2S)-2-benzoxy-4-methylpentanoyl]-L-Leu N-[2-(4-methyl-4-pentenal)]amide] | 85% |  |  |
| CC(=O)N[C@@H](CC(C)C)C(=O)N[C@@H](CC(C)C)C(=O)NC(C=O)CC1CCCCC1 (mixture of isomers) [Ac--L--L--Cha--(H), N-Ac-L-Leu-L-Leu-DL-cyclohexylalaninal] |  |  | % INHIBITION OF Aβ (concentration of 10 μM): 46% |
| CCCCC(NC(=O)[C@H](CC(C)C)NC(=O)[C@H](CC(C)C)NC(C)=O)C(=O)C(F)(F)F (mixture of isomers) [Ac--L--L--Nl--(TFMK), (3SR)-N-Ac-L-Leu-L-Leu N-[3-(1,1,1-trifluoro-2-oxo-heptyl)]amide] |  | 50% |  |
| CC=CCC(C=O)NC(=O)[C@H](CC(C)C)NC(=O)[C@H](CC(C)C)NC(C)=O (mixture of isomers) [Ac--L--L--Nlene--(H), (2SR)-N-Ac-L-Leu-L-Leu N [2-(trans-4-hexenal)]amide] |  | 96% |  |
| CC(C)C[C@H](NC(=O)OCc1ccccc1)C(=O)N[C@@H](Cc1ccccc1)C(=O)NC(C=O)CC1CCCCC1 (mixture of isomers) [Cbz--L--F--Cha--(H), (2SR)-N-Cbz-L-Leu-L-Phe-DL-cyclohexylalaninal] | 100% |  |  |
| C=C(C)CC(C=O)NC(=O)[C@H](Cc1ccccc1)NC(=O)[C@H](CC(C)C)NC(=O)OCc1ccccc1 (mixture of isomers) [Cbz--L--F--Lene--(H), (2SR)-N-Cbz-L-Leu-L-Phe-N-[2-(4-methyl-4-pentenal)]amide] |  |  | % INHIBITION OF Aβ (concentration of 10 μM): 69% |
| C=C(C)CC(C=O)NC(=O)[C@H](CC(C)C)NC(=O)[C@H](CC(C)C)NC(=O)OCc1ccccc1 (mixture of isomers) [Cbz--L--L--Lene--(H), (2SR)-N-Cbz-L-Leu-L-Leu N-[2-(4-methyl-4-pentenal)]amide] |  |  | % INHIBITION OF Aβ (concentration of 10 μM): 95% |
| CCCCC(C=O)NC(=O)[C@H](CC(C)C)N(C)C(=O)[C@H](CC(C)C)NC(=O)OCc1ccccc1 (mixture of isomers) [Cbz--L--[CH3]--L--Nl--(H), N-Cbz-L-Leu-L-(methyl)Leu-DL-norleucinal] | 77% |  |  |
| CCCCC(C=O)NC(=O)[C@H](CC(C)C)NC(=O)[C@H](CC(C)C)NC(=O)OCC1c2ccccc2-c2ccccc21 (mixture of isomers) [Fmoc--L--L--Nl--(H), N-Fmoc-L-Leu-L-Leu-DL-norleucinal] |  |  | % INHIBITION OF Aβ (concentration of 50 μM): 89% |
| CC(=O)NC(CC(C)C)C(=O)NC(CC(C)C)C(=O)NC(C=O)C1CCCCC1 [Ac--L--L--Chg--(H)] (Ac-Leu-Leu-[Chg]-aldehyde; configuration not given here) |  | 99% |  |
| CCCCC(C#N)NC(=O)[C@H](CC(C)C)NC(=O)[C@H](CC(C)C)NC(C)=O (stereo partly drawn) [Ac--L--L--Nl--(CN), (2S)-N-Ac-L-Leu-L-Leu N-[2-(hexanenitrile)]amide] |  | 94% |  |
| CCCCC(NC(=O)[C@H](CC(C)C)NC(=O)[C@H](CC(C)C)NC(C)=O)C(=O)C=[N+]=[N-] (stereo partly drawn) [Ac--L--L--Nl--(DM), N-Ac-L-Leu-L-Leu-L-Nle-COCHN2] (Ac-Leu-Leu-[ξNle]-CHN2) |  | 87% |  |
| CCCCC(C=O)NC(=O)C(CC(C)C)NC(=O)C1CCCN1C(=O)OCc1ccccc1 [Cbz--P--L--Nl--(H), N-Cbz-L-Pro-L-Leu-L-norleucinal] (Cbz-Pro-Leu-[Nle]-aldehyde; configuration not given here) | 80% |  |  |
| N-Cbz-L-Leu-L-Leu-DL-(methyl)norleucinal [Cbz--L--L--[CH3]--Nl--(H)] | 97% |  |  |
